Experimental data as given in US11439641B2, “Pyrimidine JAK inhibitors for the treatment of skin diseases” (THERAVANCE BIOPHARMA R&D IP, LLC, priority 2019, dated 2022).

How the values were obtained:
[1] = Human Liver Microsome Assay; settings: human liver microsomes 0.1 mg/mL, 0.1 μM compound, 1 mM NADPH, 37° C.
Protocol: Assay 4: Human Liver Microsome Assay
The objective of this assay was to assess the metabolic stability of test compounds in an in vitro human liver sub-fraction. Human liver microsomes obtained from Bioreclamation-IVT (Baltimore, Md.) were thawed on ice and diluted into 0.1 M potassium phosphate buffer pH 7.4 to yield final incubation protein concentrations of 0.1 mg/mL. Test compounds (10 mM) were diluted into NADPH cofactor to yield final incubation concentrations of 0.1 μM test compound and 1 mM NADPH. Incubations were conducted at 37° C. temperature and test aliquots were taken at time points 0, 5, 8, 15, 30 and 45 minutes. Each aliquot was crashed into water with 3% formic acid and 1 μM internal standard. The resulting samples were injected onto an LC-MS/MS system for analysis.
For each incubation, the peak area of the analytes in each t0 aliquot was set to 100% and the peak areas from subsequent time point aliquots were converted to percentage of parent compound remaining relative to t0. The percentage of parent compound remaining was converted to natural log scale and plotted versus time in minutes. A linear regression analysis was performed for the initial decline of the parent disappearance profile and a formula for the best-fit line determined. The slope of the resultant line was normalized to protein concentration in mg/mL protein or number of cells/mL and CLint was calculated as follows for liver microsomes: CLint(μL·min^−1·mg^−1)=(Slope×1000)/[protein,mg/mL]
CLint values from 9-49 μl/min/mg represent moderate clearance (i.e. 30-70% of hepatic blood flow in human) and values >50 μl/min/mg represent high hepatic clearance (i.e. >70% of hepatic blood flow in human).

[2] = Solubility Assay in Organic Excipients; settings: maximum upper limit 20,000 μM; for Solubility in MCT (mg/mL): medium chain triglycerides (MCT)
Caco-2 cell monolayer = assay: Caco-2 Permeation Assay; type: in vitro ADME; settings: Papp, 5 μM compound; for Cacoverap Kp 10^−6 cm/sec: A→B in the presence of 25 μM verapamil (P-gp inhibitor); for Caco Kp 10^−6 cm/sec: apical to basal (A→B)
In short: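 Compound at 5 μM, in duplicate, crosses Caco-2 monolayers apical to basal over 120 min at 37 °C. This is run with and without 25 μM verapamil to test for P-gp efflux. Samples are quantified by LC-MS/MS, and Papp in cm/sec is calculated as dQ/(dt × area × concentration).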

[3] = system: IL-22 suppressed Filaggrin expression in normal human epidermal keratinocytes; assay: Recovery of IL-22 Suppressed Filaggrin in Normal Human Epidermal Keratinocytes; type: cell-based; settings: IL-22 50 ng/mL, real-time PCR
Protocol: Assay 7: Recovery of IL-22 Suppressed Filaggrin in Normal Human Epidermal Keratinocytes
IL-22 is known to inhibit the expression of terminal differentiation genes, such as Filaggrin. The recovery level of test compound for interleukin-22 (IL-22) suppressed Filaggrin expression was measured in the normal human epidermal keratinocytes (ATCC) using real-time PCR.
Primary epidermal keratinocytes were cultured in a 37° C., 5% CO2 humidified incubator in dermal cell basal medium (ATCC) supplemented with keratinocyte growth kit (ATCC) and 1× Pen/Strep (Life Technologies). Cells were seeded at 5,000 cells/well in BioCoat 96-well plates (Corning) with 100 μl and incubated at 37° C., 5% CO2 for 3 to 4 days till 100% confluency. Then, the medium was removed and replaced with 1504 of medium containing does-response of test compounds. Compounds were serially diluted in DMSO and then diluted another 1000-fold in media to bring the final DMSO concentration to 0.1%. On day 1 of the assay, cells were incubated with test compounds at 37° C. for 1 h, and followed by the addition of followed by the addition of IL-22 (R&D Systems; final concentration 50 ng/mL) in pre-warmed media (50 μL) for 4 days. The medium with test compounds and IL-22 was changed once on day 3. On day 5, cells were washed with 1×PBS (Gibco) and lysed with 50 μl of Lysis Buffer containing 0.5 μl DnaseI from TaqMan® Gene Expression Cells-to-Ct™ Kit (Life Technologies). After incubation at room temperature (RT) for 5 minutes, 5 μl of Stop solution from the kit was added and then incubated at RT for 2 minutes. 11.25 μl of lysate, 12.5 μl of 2×RT buffer and 1.25 μl 20×RT enzyme mix from the kit were mixed. The reverse transcription reaction was carried out by incubating the mixture at 37° C. for 60 minutes and then 95° C. for 5 minutes to generate cDNA. To assemble the PCR cocktail, each reaction contained 10 μl of 2× TaqMan® Gene Expression Mater Mix, 1 μl of 2× TaqMan® Filaggrin Gene Expression Assay (Life Technologies), 1 μl of 2× TaqMan® UBC Gene Expression Assay (Life Technologies), 4 μl of nuclease-free water and 4 μl of cDNA. PCR reactions were done on StepOnePlus™ (Life Technologies) with cycling conditions of 50° C. for 2 minutes, 95° C. for 10 minutes followed by 40 cycles of 95° C. for 15 seconds and 60° C. for 1 minute. Fluorescence signals were captured after each cycle. Comparative CT method was used to quantify gene expression with cells without IL-22 and test compounds as baseline control.

Aqueous Solubility Assay = settings: PBS buffer pH 7.4; maximum upper limit 1,000 μM
Protocol: Assay 5: Aqueous Solubility Assay
The purpose of this assay was to quantify the solubility of test compounds in pH 4 and pH 7.4 PBS buffers. The assay required 40 μL of 10 mM DMSO test compound solution per desired buffer in addition to 20 μL required to make a test standard. For example, to test a compound in both buffers, 100 μL (2*40 μL+20 μL) of 10 mM DMSO compound stock solution was required.
The standard was created by diluting 20 μL of 10 mM DMSO compound stock solution into 180 μL of methanol and was shaken for five minutes to ensure solution uniformity. […] This 1,000 μM solution was run on an Agilent 1260 LC-MS system by injecting 2 μL in order to obtain the peak area. For the test solutions, 40 μL of 10 mM DMSO compound stock solution, per PBS buffer condition, were dried down into a powder overnight. Once in powder form, 400 μL of the desired PBS buffer was added to the powder and allowed to shake vigorously for four hours. The maximum theoretical concentration for this sample solution was 1,000 μM. After four hours of shaking, the samples were centrifuged for 10 minutes at 3,000 RPM before injecting 2 μL on the same Agilent 1260 LC-MS system to obtain the peak area.
In Table 6 below, A represents a value above 500, B represents a value between 250 and 500, C represents a value between 50 and 250, D represents a value between 10 and 50, and E represents a value below 10.

Structure (SMILES)	HLM Clin μL/min/mg [1]	Solubility in PEG400 (mg/mL) [2]	Solubility in Diisopropyl adipate (mg/mL) [2]	Solubility in MCT (mg/mL) [2]	Solubility in Propylene glycol (mg/mL) [2]	Cacoverap Kp 10^−6 cm/sec (Caco-2 cell monolayer)	Caco Kp 10^−6 cm/sec (Caco-2 cell monolayer)	concentration at which recovery of IL-22 suppressed Filaggrin expression was observed [3] [µM]	Solubility at PH 7.4 (μmol) (Aqueous Solubility Assay)
CCS(=O)(=O)N1[C@@H]2CCC[C@H]1C[C@H](N(C)c1nc(Nc3cc(C)[nH]n3)cc(C3CCCO3)n1)C2 (stereo partly drawn) [Compound 8, N^2-((1R,3s,5S)-9-(ethylsulfonyl)-9-azabicyclo[3.3.1]nonan-3-yl)-N2-methyl-N4-(5-methyl-1H-pyrazol-3-yl)-6-(tetrahydrofuran-2-yl)pyrimidine-2,4-diamine]	A (A represents a Clint value between 1250 and 3000)	A (A represents a value above 10)	B (B represents a value between 5 and 10)	C (C represents a value below 5)	A (A represents a value above 10)	A (A represents a value above 35×10^−6 cm/sec)	A (A represents a value above 30×10^−6 cm/sec)	< 1	C (C represents a value between 50 and 250)
COC(=O)N1[C@@H]2CCC[C@H]1C[C@H](N(C)c1nc(Nc3cc(C)[nH]n3)cc(O[C@@H]3CCOC3)n1)C2 [Compound 23]						B (B represents a value between 20×10^−6 and 35×10^−6 cm/sec)	A (A represents a value above 30×10^−6 cm/sec)	< 1	
CCS(=O)(=O)N1[C@@H]2CCC[C@H]1C[C@H](N(C)c1nc(COC3COC3)c(F)c(Nc3cc(C)[nH]n3)n1)C2 [Compound 41, N2-((1R,3s,5S)-9-(ethylsulfonyl)-9-azabicyclo[3.3.1]nonan-3-yl)-5-fluoro-N2-methyl-N4-(5-methyl-1H-pyrazol-3-yl)-6-((oxetan-3-yloxy)methyl)pyrimidine-2,4-diamine]	C (C represents a Clint value between 130 and 500)	B (B represents a value between 5 and 10)	A (A represents a value above 10)	C (C represents a value below 5)	A (A represents a value above 10)	A (A represents a value above 35×10^−6 cm/sec)	A (A represents a value above 30×10^−6 cm/sec)	< 1	D (D represents a value between 10 and 50)
CCS(=O)(=O)N1[C@@H]2CCC[C@H]1C[C@H](N(C)c1nc(CO[C@H]3CCOC3)c(F)c(Nc3cc(C)[nH]n3)n1)C2 [Compound 42, N2-((1R,3s,5S)-9-(ethylsulfonyl)-9-azabicyclo[3.3.1]nonan-3-yl)-5-fluoro-N2-methyl-N4-(5-methyl-1H-pyrazol-3-yl)-6-((((S)-tetrahydrofuran-3-yl)oxy)methyl)pyrimidine-2,4-diamine]	B (B represents a Clint value between 500 and 1250)	A (A represents a value above 10)	A (A represents a value above 10)	C (C represents a value below 5)	A (A represents a value above 10)		A (A represents a value above 30×10^−6 cm/sec)	< 1	B (B represents a value between 250 and 500)
CCS(=O)(=O)N1[C@@H]2CCC[C@H]1C[C@H](N(C)c1nc(CO[C@@H]3CCOC3)c(F)c(Nc3cc(C)[nH]n3)n1)C2 [Compound 43, N2-((1R,3s,5S)-9-(ethylsulfonyl)-9-azabicyclo[3.3.1]nonan-3-yl)-5-fluoro-N2-methyl-N4-(5-methyl-1H-pyrazol-3-yl)-6-((((R)-tetrahydrofuran-3-yl)oxy)methyl)pyrimidine-2,4-diamine]	C (C represents a Clint value between 130 and 500)	A (A represents a value above 10)	A (A represents a value above 10)	C (C represents a value below 5)	A (A represents a value above 10)		A (A represents a value above 30×10^−6 cm/sec)	< 1	B (B represents a value between 250 and 500)
